Assay results reported in patent publication US10045954B2, “Use of novel anti-HPV pharmaceutical preparation” (INSTITUTE OF BIOMEDICAL ENGINEERING, CHINESE ACADEMY OF …, priority 2013, dated 2018).

System: human cervical cancer Caski cells (HPV16 positive)
Experiment: Cytotoxicity assay (MTT, Reed-Muench)
Assay type: cell-based
Details: 72 h
Procedure: (1) Cytotoxicity assay: human cervical cancer Caski cells (HPV16 positive) at an exponential phase cultured through a conventional culturing method is digested by a trypsase, such that the attached cells are detached. The cells are suspended in a liquid medium containing 10% of fetal bovine serum, and are cultured by inoculating in a 96-well plate, each well containing 1×10^5 cells. The cells are incubated in a CO2 incubator for 24 h to make the cells be attached. labeled amount of paracetamol or paracetamol pharmaceutical preparation prepared from examples 1-21 is dissolved in DMSO used for cell culture, and then the solution is diluted with the liquid medium into a series of drug culture media with increasing concentrations, wherein the concentrations are sequentially 25, 50, 100, 200 and 400 μg/mL. The culture medium is decanted, 100 μL drug culture medium formulated according to a multiple relationship is added into the administered group, while a culture medium is used instead of the drug solution for the control group, wherein four vice holes are used at each concentration, and the cells are incubated in a CO2 incubator for 72 h. The median toxic concentration (TC50) and maximal atoxic concentration (TC0) are calculated based on a Reed-Muench method, by using a MTT method.

CC(=O)Nc1ccc(O)cc1 [Example 1, paracetamol]
TC0: 200 µg/mL
TC50: >200 µg/mL
